The text below walks through data of US10610564B2, “IRGM and precision autophagy controls for antimicrobial and inflammatory disease states and methods of detection of autophagy” (STC.UNM, priority 2015, dated 2020).

The test system of this assay is autophagy. In words: Autophagy assays identifying autophagy modulators. It counts as cell-based.
With `CC(C)COCC(CN(Cc1ccccc1)c1ccccc1)N1CCCC1` (stereo not drawn) [bepridil], the “activity as autophagy modulator” value was “agonists or inducers of autophagy”. For `CN(Cc1cc(Br)cc(Br)c1N)C1CCCCC1` [bromhexine] the value was “agonists or inducers of autophagy”; for `CCN(CC)CCOc1ccc(C(=C(Cl)c2ccccc2)c2ccccc2)cc1.O=C(O)CC(O)(CC(=O)O)C(=O)O` [clomiphene citrate (Z,E)], “agonists or inducers of autophagy”. For `CCCCc1cc2ccccc2c(OCCN(C)C)n1` [dimethisoquin], the “activity as autophagy modulator” value is recorded as “agonists or inducers of autophagy”. With `O=C(Nc1ccccc1)OCC(CN1CCCCC1)OC(=O)Nc1ccccc1` (stereo not drawn) [diperodon], the “activity as autophagy modulator” value is given as “agonists or inducers of autophagy”. Consider `CNCC(O)c1ccc(OC(=O)C(C)(C)C)c(OC(=O)C(C)(C)C)c1` (stereo not drawn) [dipivefrin], for which the “activity as autophagy modulator” value is “agonists or inducers of autophagy”. In the case of `COC(=O)Nc1nc2cc(C(=O)c3ccc(F)cc3)ccc2[nH]1` [flubendazole], the “activity as autophagy modulator” value is given as “agonists or inducers of autophagy”. As to `COCCCC/C(=N\OCCN)c1ccc(C(F)(F)F)cc1` [fluvoxamine], the “activity as autophagy modulator” value is reported as “agonists or inducers of autophagy”. The result for `CC12CC3CC(C)(C1)CC(N)(C3)C2` [memantine] reads “agonists or inducers of autophagy”. As for `CN1CCCC(CC2c3ccccc3Sc3ccccc32)C1` (stereo not drawn) [metixene], the “activity as autophagy modulator” value is listed as “agonists or inducers of autophagy”.

Consider `CNCCC=C1c2ccccc2C=Cc2ccccc21` [norcyclobenzaprine], for which the “activity as autophagy modulator” value is reported as “agonists or inducers of autophagy”. Consider `CNCCC=C1c2ccccc2CCc2ccccc21` [nortriptyline], for which the “activity as autophagy modulator” value was “agonists or inducers of autophagy”. For `CC(=O)[O-].[Hg+][c]1ccccc1` [phenylmercuric acetate], the “activity as autophagy modulator” value was “antagonists or inhibitors of autophagy”.

On to `CC[N+](C)(CC)CCC[n+]1c(-c2ccccc2)c2cc(N)ccc2c2ccc(N)cc21.[I-].[I-]` [propidium iodide], for which the “activity as autophagy modulator” value is “agonists or inducers of autophagy”. The result for `N#Cc1c(Cl)c(Cl)c(Cl)c(C#N)c1Cl` [tetrachlorisophthalonitrile] reads “antagonists or inhibitors of autophagy”.
